Reference: patent publication US11667652B2, “MCL1 inhibitors” (Gilead Sciences, Inc., priority 2019, dated 2023)
“And” between values parts separate entries of the source, which are not always exact repeats. Equal entries are not always repeated. Where two headings read alike, the source gives them in different places.

How the values were obtained:
MCL1/Bim = MCL1/Bim (Homo sapiens (Human), UniProt Q07820); test: MCL1/Bim Binding AlphaLISA Assay; conditions: recombinant human 6xHis-MCL1 (171-327), biotinylated Bim peptide (51-76)
Protocol: MCL1/Bim Binding AlphaLISA Assay.
Inhibition of the MCL1 and Bim interaction was measured in the following AlphaLISA assay.
Recombinant human MCL1 protein (C-terminal 6×His Tagged MCL1 containing residues 171-327) was generated at Gilead Sciences, Inc. (Foster City, Calif.). A biotinylated peptide derived from human Bim (residues 51-76) was purchased from CPC Scientific (Sunnyvale, Calif.). (CPC 834113). AlphaLISA anti-6His- acceptor beads (AL128R), AlphaScreen Streptavidin donor beads (6760002B), and Proxiplate-384 Plus (6008289) were purchased from PerkinElmer.
The AlphaLISA assay was performed in a 384-well Proxiplate in a total volume of […]. The reaction mixture contained 0.0625 nM 6×His-MCL1 (171-327), 0.0625 nM biotinylated-Bim peptide, 10 μg/mL AlphaLISA anti-6×His-AlphaLISA acceptor beads, 40 μg/mL AlphaScreen streptavidin donor beads, and serially diluted test compounds in the binding buffer (20 mM Hepes, pH 7.5 (Teknova H1035); 150 mM NaCl (Promega V4221); 0.002% Brij 35 (Thermo Scientific 20150); 1 mM Dithiothreitol (DTT) Solution (Affymetrix 70726); 0.01% BSA (BioLabs B9000S)). 1,000× test compounds were pre-spotted onto 384-well Proxiplate (Labcyte Echo) by Echo 555 Liquid Handler (Labcyte Inc., San Jose, Calif.) followed by incubation of 5 μL MCL1(171-327) for 1 hour. Then 5 μL Bim (51-76) was added and incubated for 2 hours. Five μL AlphaLISA anti-6His-AlphaLISA acceptor beads were then added for 1 hour followed by addition of 5 μL AlphaScreen streptavidin donor beads for 1 hour. The reaction plates were then read on an Envision multimode reader (PerkinElmer) using AlphaScreen settings. Percent inhibition was calculated as shown below: % Inhibition=100%*(Well−Neg)/(Pos−Neg) Neg: negative control, DMSO Pos: positive control, no MCL1 protein, no biotinylated-Bim peptide

SKBR3 cells = test: SKBR3 Cell Viability Assay; assay type: cell-based; conditions: CellTiter Glo, read-out: MCL1 CV SKBR3 EC50
Protocol: SKBR3 Cell Viability Assay Materials
SKBR3 Cells (ATCC HTB-30) were obtained from ATCC (Manassas, Va.) and cultured in McCoy 5A's medium (ATCC 30-2007)+10% fetal bovine serum (SH30071.03, HyClone, Pittsburgh, Pa.) plus 1× Penicillin-Streptomycin L-glutamine (Corning 30-009-CI, Corning, N.Y.).
The cell viability assay was conducted in a 384-well tissue culture plate (Grenier 781086, Monroe, N.C.) in a total volume of 70 μL. Test compounds were prepared in 1,000×, serially diluted, and pre-spotted into 384-well tissue culture plate by Echo 555 Liquid Handler (Labcyte Inc., San Jose, Calif.). Seventy μL of 6,000 SKBR3 cells were dispensed into each well of the plate and incubated at 37° C. with 5% CO2 for 72 hours. At the end of incubation, 2× CellTiter Glo (CTG) reagents (1 part buffer with 2 parts substrate) (Promega, Madison, Wis.) were prepared, and the plate and the reagent were equilibrated to room temperature for 30 minutes. CTG reagent was added to each plate by Biomek FX at 20 μL/well with 5 times pipetting and mixing to induce cell lysis. Luminescence was read by Envision multimode reader (PerkinElmer). Percent inhibition was calculated as followed: % Inhibition=100%*(Well−Neg)/(Pos−Neg) Neg, negative control, DMSO Pos, positive control, 10 μM Puromycin

[1] = Homo sapiens, SK-BR-3, 72 hours

Chain of MCL1/Bim (Q07820 171-327): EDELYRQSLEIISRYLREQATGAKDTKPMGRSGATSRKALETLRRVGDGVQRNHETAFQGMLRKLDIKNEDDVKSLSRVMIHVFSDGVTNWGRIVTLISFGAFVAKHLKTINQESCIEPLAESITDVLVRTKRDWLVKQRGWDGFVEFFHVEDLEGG

## COc1nn(C)cc1C(=O)N[S@@]1(=O)=NC(=O)c2ccc3c(c2)N(C[C@@H]2CC[C@H]2[C@@H](OC)C[C@H]2C[C@H](CCN(C)C)O[C@@H]2[C@H](C)C1)C[C@@]1(CCCc2cc(Cl)ccc21)CO3 [Example 142]
MCL1/Bim
  IC50: 0.06 nM
SKBR3 cells; 72 hours
  EC50: 106 nM

## COc1nn(C)cc1C(=O)N[S@@]1(=O)=NC(=O)c2ccc3c(c2)N(C[C@@H]2CC[C@H]2[C@@](O)(CCN2CCOCC2)/C=C/C[C@H](C)C1)C[C@@]1(CCCc2cc(Cl)ccc21)CO3 [Example 113]
MCL1/Bim
  IC50: 0.132 nM
SKBR3 cells; 72 hours
  EC50: 35.4 nM

## CO[C@H]1/C=C/C[C@H](C)C[S@@](=O)(NC(=O)c2cnn(C)c2)=NC(=O)c2ccc3c(c2)N(C[C@@H]2CC[C@H]21)C[C@]1(CO3)C[C@@H]2C[C@@H]2c2cc(Cl)ccc21 [Example 167]
MCL1/Bim
  IC50: 0.101 nM
SKBR3 cells; [1]
  EC50: 46.3 nM

## COc1nn(C)cc1C(=O)N[S@@]1(=O)=NC(=O)c2ccc3c(c2)N(C[C@@H]2CC[C@H]2C/C=C/C[C@H](C)C1)C[C@@]1(CCCc2cc(Cl)ccc21)CO3 (mixture of isomers) [Example 130]
MCL1/Bim
  IC50: 0.46 nM
SKBR3 cells; 72 hours
  EC50: 2560 nM

## COc1nn(C)cc1C(=O)N[S@@]1(=O)=NC(=O)c2ccc3c(c2)N(C[C@@H]2CC[C@H]2[C@](O)(CC(=O)N(C)C)/C=C/C[C@H](C)C1)C[C@@]1(CCCc2cc(Cl)ccc21)CO3 [Example 96]
MCL1/Bim
  IC50: 0.075 nM
SKBR3 cells; 72 hours
  EC50: 1410 nM

## COc1nn(C)cc1C(=O)N[S@@]1(=O)=NC(=O)c2ccc3c(c2)N(C[C@@H]2CC[C@H]2[C@@H](OC)/C=C/[C@H](OCCN2CC(N(C)C)C2)[C@H](C)C1)C[C@@]1(CCCc2cc(Cl)ccc21)CO3 [Example 80]
MCL1/Bim
  IC50: 0.253 nM
SKBR3 cells; [1]
  EC50: 27.5 nM

## COc1nn(C)cc1C(=O)N[S@@]1(=O)=NC(=O)c2ccc3c(c2)N(C[C@@H]2CC[C@H]2[C@@H](OC)[C@H]2CN(C)[C@H]4CO[C@H](C(C)C1)[C@@H]24)C[C@@]1(CCCc2cc(Cl)ccc21)CO3 (stereo partly shown) [Example 134]
MCL1/Bim
  IC50: 0.069 nM
SKBR3 cells; 72 hours
  EC50: 101 nM

## CO[C@H]1/C=C/[C@H](O)[C@H](C)C[S@@](=O)(Nc2ncnc3nn(C)cc23)=NC(=O)c2ccc3c(c2)N(C[C@@H]2CC[C@H]21)C[C@@]1(CCCc2cc(Cl)ccc21)CO3 [Example 66]
MCL1/Bim
  IC50: 0.039 nM
SKBR3 cells; [1]
  EC50: 8.6 nM

## COc1nn(C)cc1C(=O)N[S@@]1(=O)=NC(=O)c2ccc3c(c2)N(C[C@@H]2CC[C@H]2[C@@H](OC)/C=C/[C@H](OCCn2ccnc2)[C@H](C)C1)C[C@@]1(CCCc2cc(Cl)ccc21)CO3 [Example 88]
MCL1/Bim
  IC50: 0.055 nM
SKBR3 cells; 72 hours
  EC50: 170 nM

## COc1nn(C)cc1C(=O)N[S@@]1(=O)=NC(=O)c2ccc3c(c2)N(C[C@@H]2CC[C@H]2[C@@H](OC)/C=C/[C@H](OCc2nccn2C)[C@H](C)C1)C[C@@]1(CCCc2cc(Cl)ccc21)CO3 [Example 83]
MCL1/Bim
  IC50: 0.1 nM
SKBR3 cells; [1]
  EC50: 99.1 nM

## CO[C@H]1/C=C/C[C@H](C)C[S@@](=O)(NC(=O)c2cc3n(c2)CCOC3)=NC(=O)c2ccc3c(c2)N(C[C@@H]2CC[C@H]21)C[C@]1(CO3)SCCc2cc(Cl)ccc21 [Example 179]
MCL1/Bim
  IC50: 0.07 nM
SKBR3 cells; [1]
  EC50: 24.1 nM

## COc1nn(C)cc1C(=O)N[S@@]1(=O)=NC(=O)c2ccc3c(c2)N(C[C@@H]2CC[C@H]2[C@@H]2/C=C/[C@H](OCCCC(=O)O2)[C@H](C)C1)C[C@@]1(CCCc2cc(Cl)ccc21)CO3 [Example 156]
MCL1/Bim
  IC50: 0.393 nM
SKBR3 cells; 72 hours
  EC50: 368 nM

## COc1nn(C)cc1C(=O)N[S@@]1(=O)=NC(=O)c2ccc3c(c2)N(C[C@@H]2CC[C@H]2[C@@H](OC)/C=C/[C@@](C)(OC)[C@H](C)C1)C[C@@]1(CCCc2cc(Cl)ccc21)CO3 [Example 122]
MCL1/Bim
  IC50: 0.03 nM
SKBR3 cells; [1]
  EC50: 17.7 nM

## COc1nn(C)cc1C(=O)N[S@@]1(=O)=NC(=O)c2ccc3c(c2)N(C[C@@H]2CC[C@H]2[C@@H](OC)/C=C/[C@](C)(OC)[C@H](C)C1)C[C@@]1(CCCc2cc(Cl)ccc21)CO3 [Example 123]
MCL1/Bim
  IC50: 0.135 nM
SKBR3 cells; [1]
  EC50: 69.7 nM

## COc1nn(C)cc1C(=O)N[S@@]1(=O)=NC(=O)c2ccc3c(c2)N(C[C@@H]2CC[C@H]2[C@](CN2CCN4CCOC[C@@H]4C2)(OC)/C=C/C[C@H](C)C1)C[C@@]1(CCCc2cc(Cl)ccc21)CO3 [Example 111]
MCL1/Bim
  IC50: 0.211 nM
SKBR3 cells; [1]
  EC50: 26.3 nM

## CO[C@H]1/C=C/C[C@H](C)C[S@@](=O)(NC(=O)c2cnn(C)c2)=NC(=O)c2ccc3c(n2)N(C[C@@H]2CC[C@H]21)C[C@@]1(CCCc2cc(Cl)ccc21)CO3 [Example 185]
MCL1/Bim
  IC50: 0.04 nM
SKBR3 cells; [1]
  EC50: 17.2 nM

## COC1CC(C(=O)N[S@@]2(=O)=NC(=O)c3ccc4c(n3)N(C[C@@H]3CC[C@H]3[C@@H](OC)/C=C/C[C@H](C)C2)C[C@@]2(CCCc3cc(Cl)ccc32)CO4)C1 (stereo partly shown) [Example 195]
MCL1/Bim
  IC50: 0.05 nM
SKBR3 cells; [1]
  EC50: 23.8 nM

## COc1nn(C)cc1C(=O)N[S@@]1(=O)=NC(=O)c2ccc3c(c2)N(C[C@@H]2CC[C@H]2[C@@H](OC)/C=C/[C@H](Oc2ccccn2)[C@H](C)C1)C[C@@]1(CCCc2cc(Cl)ccc21)CO3 [Example 77]
MCL1/Bim
  IC50: 0.905 nM
SKBR3 cells; [1]
  EC50: 477 nM

## CO[C@H]1/C=C/C[C@H](C)C[S@@](=O)(NC(=O)c2cc3n(c2)CCOC3)=NC(=O)c2ccc3c(c2)N(C[C@@H]2CC[C@H]21)C[C@]1(CO3)C[C@@H]2C[C@@H]2c2cc(Cl)ccc21 [Example 168]
MCL1/Bim
  IC50: 0.233 nM
SKBR3 cells; [1]
  EC50: 94 nM

## COc1nn(C)cc1C(=O)N[S@@]1(=O)=NC(=O)c2ccc3c(c2)N(C[C@@H]2CC[C@H]2[C@H]2OC(=O)C[C@@H]2CC[C@H](C)C1)C[C@@]1(CCCc2cc(Cl)ccc21)CC3 [Example 151]
MCL1/Bim
  IC50: 0.056 nM
SKBR3 cells; [1]
  EC50: 422 nM

## COc1nn(C)cc1C(=O)N[S@@]1(=O)=NC(=O)c2ccc3c(c2)N(C[C@@H]2CC[C@H]2[C@@H](OCCCN2CCOCC2)/C=C/C[C@H](C)C1)C[C@@]1(CCCc2cc(Cl)ccc21)CO3 [Example 53]
MCL1/Bim
  IC50: 0.105 nM
SKBR3 cells; 72 hours
  EC50: 21.7 nM

## COc1nn(C)cc1C(=O)N[S@@]1(=O)=NC(=O)c2ccc3c(c2)N(C[C@@H]2CC[C@H]2[C@](O)(CC(=O)N2CCN(C)CC2)/C=C/C[C@H](C)C1)C[C@@]1(CCCc2cc(Cl)ccc21)CO3 [Example 101]
MCL1/Bim
  IC50: 0.026 nM
SKBR3 cells; 72 hours
  EC50: 27 nM

## COc1nn(C)cc1C(=O)N[S@@]1(=O)=NC(=O)c2ccc3c(c2)N(C[C@@H]2CC[C@H]2[C@@](O)(CC(=O)N2CCOCC2)/C=C/C[C@H](C)C1)C[C@@]1(CCCc2cc(Cl)ccc21)CO3 [Example 99]
MCL1/Bim
  IC50: 0.034 nM
SKBR3 cells; 72 hours
  EC50: 14.2 nM

## COCCOCCOCCO[C@H]1/C=C/[C@H](OC)[C@@H]2CC[C@H]2CN2C[C@@]3(CCCc4cc(Cl)ccc43)COc3ccc(cc32)C(=O)N=[S@](=O)(NC(=O)c2cn(C)nc2OC)C[C@H]1C [Example 76]
MCL1/Bim
  IC50: 0.048 nM
SKBR3 cells; [1]
  EC50: 24.1 nM

## CO[C@H]1/C=C/CCC[S@@](=O)(Nc2ncnc3nn(C)cc23)=NC(=O)c2ccc3c(c2)N(C[C@@H]2CC[C@H]21)C[C@@]1(CCCc2cc(Cl)ccc21)CO3 [Example 26]
MCL1/Bim
  IC50: 0.224 nM and 0.233 nM
SKBR3 cells; [1]
  EC50: 119 nM

## COc1nn(C)cc1C(=O)N[S@@]1(=O)=NC(=O)c2ccc3c(c2)N(C[C@@H]2CC[C@H]2[C@@H](OC)/C=C/[C@H](Oc2ccncc2)[C@H](C)C1)C[C@@]1(CCCc2cc(Cl)ccc21)CO3 [Example 78]
MCL1/Bim
  IC50: 0.679 nM
SKBR3 cells; [1]
  EC50: 1060 nM
